Patent US8129396B2, “2-[1H-benzimidazol-2(3H)-ylidene]-2-(pyrimidin-2-yl)acetamides and 2-[benzothiazol-2(3H)-ylidene]-2-(pyrimidin-2-yl)acetamides as kinase inhibitors” (Telik, Inc., priority 2008, dated 2012)

Tests used:
VEGFR2 kinase = molecular target: T1, VEGFR2 kinase (Homo sapiens, UniProt P35968); assay: VEGFR2 kinase assay; type: biochemical; conditions: 6 μM ATP, 1 mM MnCl2; rounded to 1 significant figure
T1 construct: purchased Cell Signaling Technology
How it was run: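 VEGFR2 phosphorylates CSKtide with 6 μM ATP and 1 mM MnCl2 for 1 hr, otherwise following the Aurora A kinase protocol. Detection by IMAP fluorescence polarization, binding reagent diluted 1:1200 in 1:1 binding buffer A/B. Run in duplicate with solvent control.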

[1] = tested on: HUVEC-2 (human umbilical vein endothelial cells); assay: HUVEC VEGF-dependent proliferation assay (BrdU); type: cell-based; conditions: VEGF (25 ng/mL)-dependent proliferation, read-out: HUVEC IC50
How it was run: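 HUVEC-2 cells on gelatin got serially diluted compound (0.5% DMSO final), and VEGF (25 ng/mL) was added 2 hr later. BrdU (10 μM) went in after one day, with labelling for another day. VEGF-dependent proliferation was read by BrdU detection, in triplicate.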

Aurora A kinase = molecular target: T2, Aurora A kinase (Homo sapiens, UniProt O14965); assay: Aurora A kinase assay (IMAP fluorescence polarization); type: biochemical; conditions: 10 μM ATP; rounded to 1 significant figure; read-out: Aur-A IC50
T2 construct: purchased Upstate Biotech
T2 sequence (O14965 1-403): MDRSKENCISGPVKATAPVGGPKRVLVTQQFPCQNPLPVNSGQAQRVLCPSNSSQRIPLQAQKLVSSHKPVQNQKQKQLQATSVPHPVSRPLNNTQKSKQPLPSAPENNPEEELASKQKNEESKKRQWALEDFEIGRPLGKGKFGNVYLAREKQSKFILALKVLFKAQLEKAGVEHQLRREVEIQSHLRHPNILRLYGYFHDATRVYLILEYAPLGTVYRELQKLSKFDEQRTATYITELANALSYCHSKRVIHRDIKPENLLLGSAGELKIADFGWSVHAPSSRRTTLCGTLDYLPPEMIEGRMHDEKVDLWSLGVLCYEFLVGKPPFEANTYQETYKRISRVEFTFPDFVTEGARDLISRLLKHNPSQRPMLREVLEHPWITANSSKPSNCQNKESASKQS
How it was run: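 Compounds (eight 3-fold dilutions, 2.5% DMSO final) were preincubated 5 min at room temperature with Aurora A kinase in buffer with 1 mM DTT. Reaction with 100 nM fluorescein-PKAtide and 10 μM ATP ran 45 min at room temperature, then was stopped with IMAP binding reagent; fluorescence polarization was read after 30 min.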

p-H3 in HCT116 cells = assay: Histone phosphorylation (p-H3) assay; type: cell-based; conditions: Homo sapiens, HCT-116; HCT116 cells, 4 hr incubation; read-out: p-H3 IC50
How it was run: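 HCT116 cells (2.5×10^4/well, attached overnight) treated 4 h with 8-point 3-fold compound dilutions at 0.5% DMSO. Lysates dot-blotted onto nitrocellulose and probed for p-H3 with β-actin on the same membrane, fluorescent secondary antibodies, Odyssey scan; duplicate wells.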

Aurora B kinase = molecular target: T3, Aurora B kinase (Homo sapiens, UniProt Q96GD4); assay: Aurora B kinase assay (IMAP fluorescence polarization); type: biochemical; conditions: 10 μM ATP; rounded to 1 significant figure; read-out: Aur-B IC50
T3 construct: purchased BPS Bioscience
How it was run: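 Reaction started with 100 nM fluorescein-labelled PKAtide and 10 μM ATP, run 45 min at room temperature, then stopped with IMAP binding reagent (1:400). After 30 min shaking at room temperature, fluorescence polarization read; run in duplicate with solvent control.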

[2] = tested on: HL60 (human promyelocytic leukemia) cells; assay: HL60 cytotoxicity assay (CellTiter-Glo); type: cell-based; conditions: HL-60, 72 h, cytotoxicity, three days culture, read-out: HL60 IC50
From the text: The cell lines HL60 (human promyelocytic leukemia) and HCT116 (human colon carcinoma) were obtained from the American Type Culture Collection, Manassas, Va., U.S.A., and HUVEC-2 (human umbilical vein endothelial cells) from BD Biosciences, Bedford, Mass., U.S.A. Aurora A kinase was obtained from Upstate Biotech, Billerica, Mass., U.S.A.; Aurora B kinase from BPS Bioscience, San Diego, Calif., U.S.A.; and VEGFR2 kinase from Cell Signaling Technology, Danvers, Mass., U.S.A. The IMAP FP Screening Express kit was obtained from Molecular Devices, Sunnyvale, Calif., U.S.A.; the CellTiter-Glo assay kit from Promega Corporation, Madison, Wis., U.S.A.; and the Cellular DNA Cytometric Analysis Reagent Kit and BrdU labeling and detection kit from Roche Diagnostics Corporation, Indianapolis, Ind., U.S.A. All products were used in accordance with manufacturer's directions. Kinase inhibition assays and the histone phosphorylation (p-H3) assay were conducted in duplicate, and the cytotoxicity and HUVEC proliferation assays were conducted in triplicate, in each case with solvent control.
Log-phase cells were trypsinized, collected by centrifugation, and resuspended in a small volume of fresh medium, and the density of viable cells was determined following Trypan Blue staining. Cells were diluted in fresh media (1×10^4 cells/mL for HL60 and 4×10^4 cells/mL for HCT116 cells), the test compounds (concentrations between 0.1 μM and 200 μM, dissolved in DMSO, 50 μL) added immediately after dilution to achieve a final DMSO concentration of 0.5%, then the suspensions added at 150 μL/well to 96-well plates, and incubated overnight to allow attachment in the case of adherent cells. The cells were cultured for three days (about three doubling times). The cells were then collected by centrifugation, and 100 μL of the culture supernatant was replaced by the CellTiter-Glo reagent. After incubation for 15 minutes at room temperature, the plate was read with a luminometer.

[3] = tested on: HCT116 (human colon carcinoma) cells; assay: HCT116 cytotoxicity assay (CellTiter-Glo); type: cell-based; conditions: HCT-116, 72 h, cytotoxicity, three days culture, read-out: HCT116 IC50

T1 sequence (P35968 20-1356): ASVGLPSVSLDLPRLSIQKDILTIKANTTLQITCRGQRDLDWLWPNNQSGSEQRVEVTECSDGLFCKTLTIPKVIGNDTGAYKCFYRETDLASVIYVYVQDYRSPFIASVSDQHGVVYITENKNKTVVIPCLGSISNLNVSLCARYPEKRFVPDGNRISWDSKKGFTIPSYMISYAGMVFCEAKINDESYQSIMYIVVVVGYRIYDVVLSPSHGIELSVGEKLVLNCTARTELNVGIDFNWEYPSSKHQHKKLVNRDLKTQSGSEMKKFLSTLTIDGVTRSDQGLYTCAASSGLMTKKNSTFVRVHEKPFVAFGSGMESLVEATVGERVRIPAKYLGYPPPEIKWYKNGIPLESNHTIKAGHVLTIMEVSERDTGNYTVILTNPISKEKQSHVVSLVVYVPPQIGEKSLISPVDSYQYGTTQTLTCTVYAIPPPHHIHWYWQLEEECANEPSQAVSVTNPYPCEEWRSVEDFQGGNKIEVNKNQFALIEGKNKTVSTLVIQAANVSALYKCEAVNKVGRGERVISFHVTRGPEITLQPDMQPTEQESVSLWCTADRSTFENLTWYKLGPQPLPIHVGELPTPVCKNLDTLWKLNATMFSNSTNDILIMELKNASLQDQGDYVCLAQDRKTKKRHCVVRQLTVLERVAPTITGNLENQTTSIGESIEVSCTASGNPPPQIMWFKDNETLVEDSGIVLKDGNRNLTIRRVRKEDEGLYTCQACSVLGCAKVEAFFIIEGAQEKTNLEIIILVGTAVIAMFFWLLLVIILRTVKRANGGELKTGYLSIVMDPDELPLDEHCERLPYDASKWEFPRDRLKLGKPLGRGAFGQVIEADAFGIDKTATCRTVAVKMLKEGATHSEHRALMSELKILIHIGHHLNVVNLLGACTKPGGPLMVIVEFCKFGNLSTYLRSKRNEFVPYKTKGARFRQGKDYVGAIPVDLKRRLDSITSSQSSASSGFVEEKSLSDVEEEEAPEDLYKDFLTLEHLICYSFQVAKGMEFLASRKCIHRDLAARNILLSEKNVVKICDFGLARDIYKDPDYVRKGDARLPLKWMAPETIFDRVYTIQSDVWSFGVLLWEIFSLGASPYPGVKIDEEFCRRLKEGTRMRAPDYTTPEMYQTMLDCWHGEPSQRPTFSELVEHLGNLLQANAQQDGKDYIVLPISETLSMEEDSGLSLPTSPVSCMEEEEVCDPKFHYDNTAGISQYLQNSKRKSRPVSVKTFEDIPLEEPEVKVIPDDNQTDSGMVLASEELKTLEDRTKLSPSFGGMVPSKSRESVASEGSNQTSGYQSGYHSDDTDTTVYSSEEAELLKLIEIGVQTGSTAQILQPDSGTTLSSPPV
T3 sequence (Q96GD4 whole entry): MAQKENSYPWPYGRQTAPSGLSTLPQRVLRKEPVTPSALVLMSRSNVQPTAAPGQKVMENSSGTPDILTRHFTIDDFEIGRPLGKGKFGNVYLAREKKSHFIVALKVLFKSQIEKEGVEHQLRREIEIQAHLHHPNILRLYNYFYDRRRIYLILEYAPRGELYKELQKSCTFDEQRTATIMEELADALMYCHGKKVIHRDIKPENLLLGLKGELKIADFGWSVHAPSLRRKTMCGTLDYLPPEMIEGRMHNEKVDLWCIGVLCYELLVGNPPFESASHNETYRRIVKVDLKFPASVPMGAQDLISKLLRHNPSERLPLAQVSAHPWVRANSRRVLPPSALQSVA

IC50 (VEGFR2 kinase) [nM] | IC50 (Aurora A kinase) [nM] | IC50 (p-H3 in HCT116 cells) [nM] | IC50 (Aurora B kinase) [nM] | Compound | IC50 [1] [nM] | IC50 [2] [nM] | IC50 [3] [nM]
10 | 10 | 200 | 5 | NC(=O)C(=C1Nc2ccccc2N1)c1nccc(C(F)(F)F)n1 [Compound 1A, 2-[1H-benzimidazol-2(3H)-ylidene]-2-(4-trifluoromethylpyrimidin-2-yl)acetamide] | 70 | 1000 | 300
90 | 30 | 2000 | 6 | NC(=O)/C(=C1\Nc2ccccc2S1)c1nccc(C(F)(F)F)n1 [Compound 2A] | 50 | 3000 | 2000
400 | 30 | 500 | 20 | NC(=O)/C(=C1\Nc2cc(F)c(Cl)cc2N1)c1nccc(C(F)(F)F)n1 [Compound 37A] |  | 4000 | 2000
200 | 40 | 300 | 10 | NC(=O)C(=C1Nc2cc(F)c(F)cc2N1)c1nccc(C(F)(F)F)n1 [Compound 38A] | 100 | 1000 | 800
20 | 10 | 300 | 6 | CCN(CCCN1CCOCC1)C(=O)c1ccc2c(c1)S/C(=C(/C(N)=O)c1nccc(C(F)(F)F)n1)N2 [Compound 42A] | 40 | 30 | 500
20 | 20 | 900 | 7 | NC(=O)/C(=C1\Nc2ccc(C(=O)NCCCn3ccnc3)cc2N1)c1nccc(C(F)(F)F)n1 [Compound 45A] | 10 | 100 | 500
40 | 6 | 200 | 10 | NC(=O)/C(=C1\Nc2ccc(C(=O)NCCCn3ccnc3)cc2S1)c1nccc(C(F)(F)F)n1 [Compound 46A] |  | 200 | 400
20 | 4 | 200 | 6 | NC(=O)/C(=C1\Nc2ccc(C(=O)NCCn3ccnc3)cc2S1)c1nccc(C(F)(F)F)n1 [Compound 47A] | 4 | 300 | 300
10 | 10 | 300 | 1 | CCN(CCCn1ccnc1)C(=O)c1ccc2c(c1)N/C(=C(/C(N)=O)c1nccc(C(F)(F)F)n1)N2 [Compound 48A] | 40 | 100 | 600
20 | 7 | 300 | 6 | NC(=O)/C(=C1\Nc2ccc(C(=O)NCCN3CCC(F)(F)CC3)cc2N1)c1nccc(C(F)(F)F)n1 [Compound 51A] | 30 | 50 | 500
20 | 3 | 200 | 10 | NC(=O)/C(=C1\Nc2ccc(C(=O)NCCN3CCOCC3)cc2N1)c1nccc(C(F)(F)F)n1 [Compound 53A] | 30 | 200 | 300
10 | 6 | 400 | 10 | NC(=O)/C(=C1\Nc2ccc(C(=O)NCCN3CCOCC3)cc2S1)c1nccc(C(F)(F)F)n1 [Compound 54A] | 30 | 300 | 400
4 | 20 | 30 | 10 | NC(=O)/C(=C1\Nc2ccc(C(=O)N3CCNCC3)cc2S1)c1nccc(C(F)(F)F)n1 [Compound 61A] | 20 | 200 | 100
6 | 10 | 100 | 5 | CN(C)CC(=O)Nc1ccc2c(c1)N/C(=C(/C(N)=O)c1nccc(C(F)(F)F)n1)N2 [Compound 73A] | 100 | 200 | 200
6 | 2 | 40 | 3 | NC(=O)/C(=C1\Nc2ccc(CCn3ccnc3)cc2N1)c1nccc(C(F)(F)F)n1 [Compound 96A] |  | 100 | 300
100 | 20 | 1000 | 7 | NC(=O)/C(=C1\Nc2ccc(CCc3cccnc3)cc2S1)c1nccc(C(F)(F)F)n1 [Compound 99A] |  | 2000 | 3000
60 | 30 | 2000 | 10 | NC(=O)/C(=C1\Nc2ccc(CCN3CCC(F)(F)CC3)cc2S1)c1nccc(C(F)(F)F)n1 [Compound 104A] |  | 1000 | 3000
40 | 8 | > 5000 | 20 | NC(=O)/C(=C1\Nc2ccc(-c3cccnc3)cc2N1)c1nccc(C(F)(F)F)n1 [Compound 107A] |  | 1000 | 5000
60 | 10 | 3000 | 10 | NC(=O)/C(=C1\Nc2ccc(-c3cccnc3)cc2S1)c1nccc(C(F)(F)F)n1 [Compound 108A] |  | 2000 | 2000
50 | 20 | > 5000 | 9 | NC(=O)/C(=C1\Nc2ccc(-c3ccccn3)cc2N1)c1nccc(C(F)(F)F)n1 [Compound 109A] |  | 500 | 3000
30 | 20 | 200 |  | Cc1cc2c(cc1C)NC(=C(C(N)=O)c1ncc(C(=O)NCCN3CCOCC3)c(C(F)(F)F)n1)N2 [Compound 136A] | 200 | 200 | 800
40 | 8 | 500 | 8 | Cc1cc(C(F)(F)F)nc(C(C(N)=O)=C2Nc3ccccc3N2)n1 [Compound 138A] |  | 400 | 1000
10 | 20 | 80 | 4 | CCN(C(=O)[C@@H]1CCCN1C)c1ccc2c(c1)N/C(=C(/C(N)=O)c1nccc(C(F)(F)F)n1)N2 [Compound 145A] |  | 400 | 200
